The values below come from patent US8129547B2, “Anticoagulation of human blood ex vivo” (priority 2006, dated 2012).

pKi: −log10 of the molar value. Counter-ions that a name gives are not always drawn.

For one assay, the system named is thrombin formation. In words: Inhibition of thrombin formation (prothrombin fragment F1+2) in hirudin-anticoagulated plasma after activation by kaolin. It is filed as biochemical, human. Conditions: inhibitor 100 μM, 37° C. Here is the method: In this example thrombin formation was activated in plasma anticoagulated with hirudin by the addition of kaolin and the ability of the inhibitors to inhibit thrombin formation was examined.
Blood sampled from a patient was initially anticoagulated by means of the thrombin inhibitor hirudin. For this purpose 9 parts of blood were mixed with 1 part of hirudin solution (recombinant hirudin HBW 023, Hoechst, Frankfurt, 2000 E/ml of physiological NaCl solution), then centrifuged for 10 minutes at 1300 revolutions per minute (rpm). 900 μl of the plasma anticoagulated with hirudin, present in excess, were mixed in polypropylene tubes with 50 μl of inhibitor solution or 0.9% NaCl solution and 50 μl kaolin suspension (from APTT-Test from Roche Diagnostics, diluted 1:250 before use with physiological NaCl solution), and incubated at 37° C. with light shaking. In this case kaolin acts as a non-physiological surface which activates the blood coagulation thereby finally stimulating thrombin formation. At certain times the quantity of the thrombin formed was determined immunologically on the basis of the formation of the prothrombin fragment F1+2 (Enzygnost F1+2 micro, Dade Behring GmbH, Marburg). This determination is based on an enzyme immunoassay according to the sandwich principle. For this purpose aliquot volumes (600 μl) were anticoagulated at certain times with 0.1 M EDTA (40 μl) and kept at −20° C. To determine the concentration of the prothrombin fragment F1+2 50 μl of plasma (if necessary diluted with PBS, phosphate-buffered saline) were incubated with monoclonal antibodies against the human prothrombin fragment F1+2, which were fixed on a microtitre plate included in the test kit. After a washing stage with PBS, which was used to remove sample material not bound by the antibodies, antibodies conjugated with peroxidase were incubated against human prothrombin binding to the free F1+2 determinants. […] This was then determined photometrically at a wavelength of 492 nm. […]

The next assay concerns the target T1, Factor XIa (Homo sapiens, UniProt P03951).
T1 construct: purchased Haemochrom Diagnostica GmbH (Essen, D)
The assay can be described thus: Determination of Ki values, chromogenic substrate, Dixon evaluation: Factor XIa. It is filed as biochemical. Conditions: 25° C., tris buffer pH 8.0, substrate H-D-Lys(Cbo)-Pro-Arg-pNA. The source says:
(§1) The inhibitors used here are the commercially available exemplary inhibitors Pefabloc tPA/Xa (2,7-bis(4-amidinobenzylidene)-cyclopeptanone-(1), Pentapharm Ltd. Basel, Switzerland), CJ-FXa (benzylsulphonyl-D-arginyl-glycyl-4-amidinobenzylamide, Haemochrom GmbH, Essen, Germany) and CJ-PK (benzylsulphonyl-D-seryl-carbobenzoxylsyl-4-amidinobenzylamide, Haemochrom GmbH, Essen, Germany). Research samples were available of DX-9065a ((+)-(2S)-2-[4-[[3S)-1-acetimidoyl-3-pyrrodinyl]oxy]phenyl]-3-[7-amidino-2-naphthyl]propanic acid, Daiichi Pharmaceutical Company Ltd., Tokyo, Japan), and Otamixaban (2-(R)-(3-carbamimidoylbenyzyl)-3-(R)-[4-(1-oxypyridin-4-yl)benzoylamino]-butyric acid-methylester, Sanofi-Aventis GmbH, Frankfurt, Germany), both of which are undergoing clinical tests. In order to examine the inhibitory action of these exemplarily used inhibitors on the blood coagulation factors plasma-kallikrein, VIIa, Xa, XIa and XIIa, the Ki values of the respective enzyme-inhibitor complexes were determined.
(§2) The enzymes were produced by Haemochrom Diagnostica GmbH (Essen, D) and were dissolved in 0.154 mol/l NaCl. The substrates (Pentapharm AG, Basel, CH) were dissolved in H2O and the inhibitor was dissolved in the above-mentioned tris buffer. The following substrates were used for the individual enzymes:
(§3) 200 μl of inhibitor solution were mixed with 25 μl of substrate for the determination and the reaction was started by the addition of 50 μl of enzyme. After a reaction time of 3-5 mins. 25 μl of acetic acid (50%) were added and the extinction was measured at 405 nm with a microplate reader (iEMS Reader MF 12401, Labsystems, Helsinki, Finland). The evaluation was carried out graphically according to Dixon (Biochem. J., 55, 170, 1953).
(§4) The enzymes were produced by Haemochrom Diagnostica GmbH (Essen, D), and only thrombin was manufactured in our own laboratory according to Walsmann (Pharmazie 23, 401-402, 1968). All the enzymes were dissolved in 0.154 mol/l NaCl. The substrates (Pentapharm AG, Basel, CH) were dissolved in H2O and the inhibitor was dissolved in the above-mentioned tris buffer. The following substrates were used for the individual enzymes:
(§5) 200 μl of inhibitor solution were mixed with 25 μl of substrate for the determination and the reaction was started by the addition of 50 μl of enzyme. After a reaction time of 3-5 mins. 25 μl of acetic acid (50%) were added and the extinction was measured at 405 nm with a microplate reader (iEMS Reader MF 1401, Labsystems, Helsinki, Finland). The evaluation was carried out graphically according to Dixon (Biochem. J., 55, 170, 1953).

In a further assay the target is T2, Factor XIIa (Homo sapiens, UniProt P00748).
T2 construct: purchased Haemochrom Diagnostica GmbH (Essen, D)
T2 sequence (P00748 373-615 limits assumed): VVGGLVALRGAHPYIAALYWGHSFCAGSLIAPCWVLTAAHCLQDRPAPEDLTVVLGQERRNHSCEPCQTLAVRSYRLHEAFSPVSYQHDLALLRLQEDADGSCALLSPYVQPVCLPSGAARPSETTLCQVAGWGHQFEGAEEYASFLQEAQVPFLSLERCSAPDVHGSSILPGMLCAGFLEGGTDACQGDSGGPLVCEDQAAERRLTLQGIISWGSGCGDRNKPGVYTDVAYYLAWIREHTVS
In words: Determination of Ki values, chromogenic substrate, Dixon evaluation: Factor XIIa. The format is biochemical. The following applies: 25° C., tris buffer pH 8.0, substrate H-D-HHT-Gly-Arg-pNA.
From the text: as §1, §2, §3, §4, §5

The target in another assay is T3, Factor Xa (Homo sapiens, UniProt P00742).
T3 construct: purchased Haemochrom Diagnostica GmbH (Essen, D)
T3 sequence (P00742 235-488 limits assumed): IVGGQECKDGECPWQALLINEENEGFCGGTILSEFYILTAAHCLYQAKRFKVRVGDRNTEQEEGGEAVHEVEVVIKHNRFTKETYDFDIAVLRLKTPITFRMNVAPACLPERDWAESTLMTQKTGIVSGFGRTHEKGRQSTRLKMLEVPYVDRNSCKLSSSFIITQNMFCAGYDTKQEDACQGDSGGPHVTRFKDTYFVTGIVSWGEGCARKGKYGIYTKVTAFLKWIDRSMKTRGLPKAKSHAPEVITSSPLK
T3 sequence (P00742 41-179 partner limits assumed): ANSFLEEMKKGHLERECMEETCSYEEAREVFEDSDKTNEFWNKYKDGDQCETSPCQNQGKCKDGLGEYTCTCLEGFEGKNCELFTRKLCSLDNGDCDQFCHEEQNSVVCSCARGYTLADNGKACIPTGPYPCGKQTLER
The assay can be described thus: Determination of Ki values, chromogenic substrate, Dixon evaluation: Factor Xa. The format is biochemical. Conditions: 25° C., tris buffer pH 8.0, substrate CH3OCO-D-Cha-Gly-Arg-pNA.

A further assay deals with T4, Factor VIIa (Homo sapiens, UniProt P08709).
T4 construct: purchased Haemochrom Diagnostica GmbH (Essen, D)
T4 sequence (P08709 213-466 limits assumed): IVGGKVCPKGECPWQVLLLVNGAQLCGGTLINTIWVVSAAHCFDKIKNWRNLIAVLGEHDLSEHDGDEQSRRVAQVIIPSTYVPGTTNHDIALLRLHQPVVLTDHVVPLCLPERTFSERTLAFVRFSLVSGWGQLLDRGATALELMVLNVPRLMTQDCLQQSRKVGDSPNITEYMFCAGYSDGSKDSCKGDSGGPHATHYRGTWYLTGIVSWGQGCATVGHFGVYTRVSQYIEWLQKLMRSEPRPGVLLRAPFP
T4 sequence (P08709 61-212 partner limits assumed): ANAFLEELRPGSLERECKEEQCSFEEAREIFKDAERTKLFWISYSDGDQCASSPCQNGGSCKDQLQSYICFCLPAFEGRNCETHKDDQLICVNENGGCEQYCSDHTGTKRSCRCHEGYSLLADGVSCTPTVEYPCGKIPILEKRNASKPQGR
The assay can be described thus: Determination of Ki values, chromogenic substrate, Dixon evaluation: Factor VIIa. The format is biochemical. Conditions: 25° C., tris buffer pH 8.0, substrate CH3SO2-D-phe-Gly-Arg-pNA.
From the text: as §1, §2, §3, §4, §5

A further assay has as its target T5, Plasma-kallikrein (Homo sapiens, UniProt P03952).
T5 construct: purchased Haemochrom Diagnostica GmbH (Essen, D)
The assay can be described thus: Determination of Ki values, chromogenic substrate, Dixon evaluation: plasma-kallikrein. It is filed as biochemical. Conditions: 25° C., tris buffer pH 8.0, substrate Bz-Pro-Phe-Arg-pNA; read-out: Ki PK (plasma-kallikrein).
From the text: In a particularly preferred embodiment the compound according to Formula (I) inhibits not only the blood coagulation factor XA but also thrombin and/or plasma kallikrein. […] Here too the Ki value stands for the dissociation constant of the respective enzyme-inhibitor complex. The determination of the Ki values of the inhibitors vis-a-vis thrombin and plasma kallikrein is preferably carried out in a similar manner to the determination, described above, of the Ki values of the inhibitors vis-a-vis the coagulation factor Xa, but in this case CH3SO2-D-HHT-gly-arg-pNA (with HHT=hexahydrothyrosin, and pNA=para-nitroaniline; sold under the commercial name Pefachrome tPA) are used as substrates in the case of thrombin and bz-pro-phe-arg-pNA (with bz=[…], and pNA=para-nitroaniline; sold under the commercial name Chromozym PK) in the case of plasma-kallikrein.
as §1, §2, §3, §4, §5

A further assay concerns human vein blood. The assay can be described thus: Storage of human vein blood after anticoagulation with inhibitor (F1+2 immunoassay). Here is the method: In the sense of the invention anticoagulation means that the re-formation of thrombin is inhibited in the sampled blood. According to the invention thrombin re-formation is inhibited when no more than 1 nM of thrombin is re-formed in the sampled blood. As described above, the activation of prothrombin to thrombin represents an essential step in the blood coagulation cascade. In this case the prothrombin fragment 1+2 (F1+2) is released in equivalent quantities. It is therefore possible to quantify the thrombin actually formed by determining the fragment produced, thus enabling the prothrombin fragment F1+2 to be used as an indirect marker of an activation of prothrombin to thrombin. The concentration of the prothrombin fragment F1+2 formed may be determined immunologically, for example, with commercial enzyme immunoassays (for example Enzygnost F1+2 micro, Dade Behring GmbH, Marburg).
According to the invention anticoagulation therefore means that no more than 1 nM of prothrombin fragment F1+2 is newly formed in the blood after its sampling. […] Without suitable treatment of the blood to prevent coagulation there is an increase in the concentration of the prothrombin fragment F1+2 in this example to well over 1.3 nM, within a few minutes, due to the plasmatic coagulation, i.e. the blood coagulates.
In this experiment it was determined how long human vein blood can be stored without the formation of thrombin or activation of thrombocytes.
For this purpose blood (9 parts) sampled from a patient was mixed with inhibitor solution (0.05 mM, 0.5 mM or 5 mM in physiological NaCl solution; 1 part). Some of the blood was stored at 25° C., the remainder in the refrigerator at 4° C. The quantity of thrombin formed was determined immunologically during storage based on the formation of the prothrombin fragment F1+2 (Enzygnost F1+2 micro, Dade Behring GmbH, Marburg). […] In this case it is irrelevant whether the blood samples were kept at room temperature (approx. 25° C.) or at 4° C.
For this purpose blood (9 parts) sampled from a patient was mixed with inhibitor solution (0.05 mM, 0.5 mM or 5 mM in physiological NaCl solution; 1 part) and stored at room temperature (about 22±2° C.). The quantity of thrombin formed was determined immunologically during storage based on the formation of the prothrombin fragment F1+2 (Enzygnost F1+2 micro, Dade Behring GmbH, Marburg). It was shown that BAPA′ is capable of keeping anticoagulated blood uncoagulated at a concentration in the blood of 500 μM or 50 μM for more than 48 hours (Table 4). At a concentration of 5 μM BAPA′ prevents coagulation for more than 8 hours.

In assay [1] the test system is thrombocytes. The assay can be described thus: Induced aggregation of thrombocytes (Born in PRP, impedance full blood aggregometry) after anticoagulation, Example 4. Conditions: 24 hours after sampling; ADP, collagen, arachidonic acid. It is filed as cell-based, human. The procedure:
(§6) For this purpose blood was taken within 1 hour from 12 healthy subjects. 1 aliquot of each of the 12 blood samples was anticoagulated with citrate and 1 other aliquot of the 12 blood samples was anticoagulated with a direct inhibitor of the blood coagulation factor Xa. For this purpose 9 parts of blood were mixed with 1 part of citrate (0.106 mol/l) or 1 part of inhibitor solution in a suitable concentration. Platelet-rich plasma (PRP) was manufactured by centrifuging at 164×g over 10 minutes. The thrombocytes in PRP were activated by induced aggregation according to Born with 5 μmols/l of ADP, 2 μg/ml of collagen and 0.5 mmol/l of arachidonic acid. Impedance full blood aggregometry was carried out with the Multiplate aggregometer and with 6.5 μmols/l of ADP, 3.2 μg/ml of collagen and 0.5 mmol/l of arachidonic acid. The analyses were conducted 1, 2, 3, 4, 5, 10 and 24 hours after blood sampling.

Assay [2] deals with thrombocytes. In words: Thrombocyte propagation on plastic object carriers, Example 4. The format is cell-based, human. The following applies: PRP, 24 hours after blood sampling. The procedure: as §6
On the contrary, less than 10% of the thrombocytes in RPR anticoagulated with citrate were still propagated 24 hours after blood sampling.

[3] abbreviates: 25° C., concentration in the blood 50 μM.
Setting [4] is: 25° C., concentration in the blood 500 μM.

T1 sequence (P03951 388-625 limits assumed): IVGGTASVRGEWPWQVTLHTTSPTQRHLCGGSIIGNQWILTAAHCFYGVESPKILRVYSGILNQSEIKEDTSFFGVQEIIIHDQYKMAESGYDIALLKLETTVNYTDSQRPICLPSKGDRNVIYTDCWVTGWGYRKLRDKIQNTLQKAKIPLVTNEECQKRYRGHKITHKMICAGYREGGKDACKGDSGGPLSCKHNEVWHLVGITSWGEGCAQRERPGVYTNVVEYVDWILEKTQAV
T1 sequence (P03951 19-387 partner limits assumed): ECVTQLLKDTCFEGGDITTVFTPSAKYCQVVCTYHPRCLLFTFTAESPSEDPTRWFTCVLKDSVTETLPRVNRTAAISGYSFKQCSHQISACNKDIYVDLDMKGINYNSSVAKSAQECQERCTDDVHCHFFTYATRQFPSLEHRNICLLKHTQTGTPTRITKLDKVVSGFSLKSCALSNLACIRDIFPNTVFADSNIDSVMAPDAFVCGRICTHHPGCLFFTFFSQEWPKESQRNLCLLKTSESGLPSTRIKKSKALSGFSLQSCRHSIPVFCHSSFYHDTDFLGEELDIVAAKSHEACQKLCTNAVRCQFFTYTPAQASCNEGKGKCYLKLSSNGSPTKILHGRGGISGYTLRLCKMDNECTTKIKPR
T5 sequence (P03952 391-638 limits assumed): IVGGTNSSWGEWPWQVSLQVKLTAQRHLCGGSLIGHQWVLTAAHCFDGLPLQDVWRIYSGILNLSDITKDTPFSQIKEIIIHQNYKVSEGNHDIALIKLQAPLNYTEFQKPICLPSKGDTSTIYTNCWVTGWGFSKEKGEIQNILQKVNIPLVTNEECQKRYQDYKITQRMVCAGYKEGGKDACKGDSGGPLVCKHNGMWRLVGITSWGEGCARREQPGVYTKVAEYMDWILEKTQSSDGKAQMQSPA
T5 sequence (P03952 20-390 partner limits assumed): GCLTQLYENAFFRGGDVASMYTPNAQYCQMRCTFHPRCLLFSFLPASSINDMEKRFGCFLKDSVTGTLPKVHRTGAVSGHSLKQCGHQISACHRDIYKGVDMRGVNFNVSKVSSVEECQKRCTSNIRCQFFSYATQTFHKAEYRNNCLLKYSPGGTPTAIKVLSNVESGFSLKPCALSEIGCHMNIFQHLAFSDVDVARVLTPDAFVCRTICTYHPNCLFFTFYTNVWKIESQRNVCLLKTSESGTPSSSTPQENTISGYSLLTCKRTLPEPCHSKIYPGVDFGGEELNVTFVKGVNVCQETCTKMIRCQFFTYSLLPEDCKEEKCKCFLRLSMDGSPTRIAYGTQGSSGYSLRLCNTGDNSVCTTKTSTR

What is called pKi is the negative decadic logarithm of the Ki, by convention in mol/L. Regarding “benzylsulphonyl-D-seryl-carbobenzoxylsyl-4-amidinobenzylamide [CJ-PK]”, in the assay with thrombin formation, the “suppression of thrombin formation after kaolin activation” value is given as “suppress thrombin formation effectively”. The pKi is 6.60 at Factor XIa; 4.92 at Factor XIIa; 5.54 at Factor Xa; 5.42 at Factor VIIa; 8.46 on Plasma-kallikrein.

Consider `N=C(N)NCCC[C@@H](NS(=O)(=O)Cc1ccccc1)C(=O)NCC(=O)NCc1ccc(C(=N)N)cc1` [CJ-FXa, benzylsulphonyl-D-arginyl-glycyl-4-amidinobenzylamide], for which the pKi is 6.10 at Factor XIa; 6.46 at Factor XIIa; 8.46 on Factor Xa; 5.02 on Factor VIIa; 7.08 at Plasma-kallikrein. The Anticoagulation time in the assay on human vein blood (4° C., concentration in the blood 500 μM) was above 48 h; with human vein blood (setting [3]), “approx. 24 h”; with human vein blood (25° C., concentration in the blood 50 μM, listed as CJ-Fxa), 12 to 24 h; with human vein blood (setting [4]), above 48 h.

For the compound `O=C(O)CC(O)(CC(=O)O)C(=O)O` [citrate, trisodium citrate], the “induced aggregation relative to the initial value” in the assay on thrombocytes [1] is 20 to 30 % of the initial value. For the same compound, the “thrombocytes showing normal propagation on plastic object carriers” value in the assay on thrombocytes [2] was “less than 10%”.

For the compound `N=C(N)NCCC[C@@H](NS(=O)(=O)Cc1ccccc1)C(=O)N1CCC[C@H]1C(=O)NCc1ccc(C(=N)N)cc1` [BAPA′, benzylsulphonyl-D-arginyl-prolyl-4-amidinobenzylamide], the results for the pKi on Factor XIa, at Factor XIIa and at Factor VIIa were 7.57, 6.89 and 6.08, respectively.

Turning to `CC(=N)N1CC[C@H](Oc2ccc([C@H](Cc3ccc4ccc(C(=N)N)cc4c3)C(=O)O)cc2)C1` [DX-9065a], the negative logarithm of the Ki (pKi) was 5.64 at Factor XIa, 6.47 at Factor XIIa, 4.04 on Factor VIIa and 6.28 at Plasma-kallikrein. The Anticoagulation time is 5 to 7 h in the assay with human vein blood (setting [3]) and 7 to 12 h in the assay with human vein blood (setting [4]).
